What was measured:
[1] = test system: SETVI (Foxtail, Green); assay: Preemergence herbicidal evaluation; assay type: in vivo, Setaria viridis; conditions: rated 4-5 weeks after treatment; for SETVI rating: preemergence, 0-9 scale
Method in brief: (§1)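 Scores (0–9) reflect visual comparison with control plants for stand, vigor, malformation, size and chlorosis. Compound was applied to the soil after sowing, before emergence, as an aqueous acetone spray (about 0.0156–0.500 kg/ha), and cups were kept in a greenhouse for 4–5 weeks.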

[2] = test system: ORYSAT (Rice, Tebonnet); assay: Postemergence herbicidal evaluation; assay type: in vivo, Oryza sativa, (L.) Tebonnet; conditions: for ORYSAT herbicidal rating: postemergence
Method in brief: (§2)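 Seedlings grown about two weeks were sprayed at 40 psi with compound dispersed in 50/50 acetone/water plus 0.5% TWEEN 20, at about 0.0156 to 0.500 kg/ha. Plants were kept in the greenhouse and scored 4–5 weeks later on a 0–9 visual scale against untreated controls.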

[3] = test system: ABUTH (Velvetleaf); assay: Postemergence herbicidal evaluation; assay type: in vivo, Abutilon theophrasti; conditions: for ABUTH herbicidal rating: postemergence
Method in brief: as §2

[4] = test system: GALAP (Galium); assay: Preemergence herbicidal evaluation; assay type: in vivo, Galium aparine; conditions: rated 4-5 weeks after treatment; for GALAP rating: preemergence, 0-9 scale
Method in brief: as §1

[5] = test system: CYPIR (Rice Flatsedge); assay: Preemergence weed control under flooded paddy conditions; assay type: in vivo, Cyperus iria; conditions: rated 3-4 weeks after treatment
Method in brief: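 Seeds or propagules sown in silt loam kept flooded 1.5-3 cm; compounds in 50/50 acetone/water pipetted into flood water at about 0.0313 to 0.500 kg/ha. Greenhouse; visual 0-9 rating versus untreated control 3-4 weeks after treatment.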

[6] = test system: CYPSE (Flatsedge); assay: Postemergence weed control under flooded paddy conditions; assay type: in vivo, Cyperus serotinus; conditions: postemergence weeds
Method in brief: (§3)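 With weeds 3 to 5 cm tall and rice at the 1.5 to 2.5 leaf stage, containers were flooded and water held 1.5 to 3 cm above soil. Compounds in 50/50 v/v aqueous/acetone went into the flood water at about 0.0313 to 0.500 kg/ha a.i. Effects were visually rated 0–9 against controls after three to four weeks in the greenhouse.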

[7] = test system: SETVI (Foxtail, Green); assay: Postemergence herbicidal evaluation; assay type: in vivo, Setaria viridis; conditions: for SETVI herbicidal rating: postemergence
Method in brief: as §2

[8] = test system: CHEAL (Lambsquarters, Common); assay: Postemergence herbicidal evaluation; assay type: in vivo, Chenopodium album; conditions: for CHEAL herbicidal rating: postemergence
Method in brief: as §2

[9] = test system: AMBEL (Ragweed, Common); assay: Preemergence herbicidal evaluation; assay type: in vivo, Ambrosia artemisifolia; conditions: rated 4-5 weeks after treatment; for AMBEL rating: preemergence, 0-9 scale
Method in brief: as §1

[10] = test system: SAGPY (Arrowhead (Pygmaea)); assay: Postemergence weed control under flooded paddy conditions; assay type: in vivo, Sagittaria pygmaea; conditions: postemergence weeds
Method in brief: as §3

[11] = test system: ZEAMX (Corn, Field); assay: Postemergence herbicidal evaluation; assay type: in vivo, Zea mays; conditions: for ZEAMX herbicidal rating: postemergence
Method in brief: as §2

[12] = test system: TRZAWR (Wheat, Winter, cv Riband); assay: Postemergence herbicidal evaluation; assay type: in vivo, Triticum aestivum; conditions: for TRZAWR herbicidal rating: postemergence
Method in brief: as §2

[13] = test system: ECHORC (Watergrass (Calif.)); assay: Postemergence weed control under flooded paddy conditions; assay type: in vivo, Echinochloa oryzoides; conditions: postemergence weeds
Method in brief: as §3

[14] = test system: GLXMAW (Soybean, Williams); assay: Postemergence herbicidal evaluation; assay type: in vivo, Glycine max, (L.) Merr. cv Williams; conditions: for GLXMAW herbicidal rating: postemergence
Method in brief: as §2

[15] = rate 0.0313 kg/ha, 3-4 weeks after treatment
[16] = rate 0.0625 kg/ha, 3-4 weeks after treatment
[17] = rate 0.1250 kg/ha, 3-4 weeks after treatment
[18] = rate 0.2500 kg/ha, 3-4 weeks after treatment
[19] = Rate 0.0313 kg/ha, rated 3 to 4 weeks after treatment
[20] = Rate 0.0625 kg/ha, rated 3 to 4 weeks after treatment
[21] = Rate 0.1250 kg/ha, rated 3 to 4 weeks after treatment
[22] = Rate 0.2500 kg/ha, rated 3 to 4 weeks after treatment

## Cn1c(C(F)(F)F)cc(=O)n(-c2cc(N=C3SCC(=O)N3CC(=O)NS(C)(=O)=O)c(Cl)cc2F)c1=O [Compound 38, 2-{{2-Chloro-5-[3,6-dihydro-3-methyl-2,6-dioxo-4-(trifluoromethyl)-1(2H)-pyrimidinyl]-4-fluoro-phenyl}imino}-N-(methylsulfonyl)-4-oxo-3-thiazolidineacetamide]
[1]; rate 0.0313 kg/ha
  Preemergence herbicidal rating SETVI: 0.0
[1]; rate 0.0625 kg/ha
  Preemergence herbicidal rating SETVI: 3.0
[1]; rate 0.1250 kg/ha
  Preemergence herbicidal rating SETVI: 7.0
[1]; rate 0.2500 kg/ha
  Preemergence herbicidal rating SETVI: 9.0
[2]; Rate 0.0156 kg/ha
  Postemergence herbicidal rating ORYSAT: 0.5
[2]; Rate 0.0313 kg/ha
  Postemergence herbicidal rating ORYSAT: 0.5
[2]; Rate 0.0625 kg/ha
  Postemergence herbicidal rating ORYSAT: 2.5
[2]; Rate 0.1250 kg/ha
  Postemergence herbicidal rating ORYSAT: 6.0
[2]; Rate 0.2500 kg/ha
  Postemergence herbicidal rating ORYSAT: 7.5
[3]; Rate 0.0156 kg/ha
  Postemergence herbicidal rating ABUTH: 9.0
[3]; Rate 0.0313 kg/ha
  Postemergence herbicidal rating ABUTH: 9.0
[3]; Rate 0.0625 kg/ha
  Postemergence herbicidal rating ABUTH: 9.0
[3]; Rate 0.1250 kg/ha
  Postemergence herbicidal rating ABUTH: 9.0
[3]; Rate 0.2500 kg/ha
  Postemergence herbicidal rating ABUTH: 9.0
[4]; rate 0.0313 kg/ha
  Preemergence herbicidal rating GALAP: 0.0
[4]; rate 0.0625 kg/ha
  Preemergence herbicidal rating GALAP: 5.0
[4]; rate 0.1250 kg/ha
  Preemergence herbicidal rating GALAP: 8.0
[4]; rate 0.2500 kg/ha
  Preemergence herbicidal rating GALAP: 9.0
[5]; 0.0313 kg/ha
  Herbicidal rating CYPIR: 3.0
[5]; 0.0625 kg/ha
  Herbicidal rating CYPIR: 3.0
[5]; 0.1250 kg/ha
  Herbicidal rating CYPIR: 5.0
[5]; 0.2500 kg/ha
  Herbicidal rating CYPIR: 5.0
[6]; [15]
  Herbicidal rating CYPSE: 0.0
[6]; [16]
  Herbicidal rating CYPSE: 0.0
[6]; [17]
  Herbicidal rating CYPSE: 0.0
[6]; [18]
  Herbicidal rating CYPSE: 3.0
[7]; Rate 0.0156 kg/ha
  Postemergence herbicidal rating SETVI: 0.0
[7]; Rate 0.0313 kg/ha
  Postemergence herbicidal rating SETVI: 3.0
[7]; Rate 0.0625 kg/ha
  Postemergence herbicidal rating SETVI: 5.0
[7]; Rate 0.1250 kg/ha
  Postemergence herbicidal rating SETVI: 9.0
[7]; Rate 0.2500 kg/ha
  Postemergence herbicidal rating SETVI: 9.0
[8]; Rate 0.0156 kg/ha
  Postemergence herbicidal rating CHEAL: 1.0
[8]; Rate 0.0313 kg/ha
  Postemergence herbicidal rating CHEAL: 3.0
[8]; Rate 0.0625 kg/ha
  Postemergence herbicidal rating CHEAL: 4.0
[8]; Rate 0.1250 kg/ha
  Postemergence herbicidal rating CHEAL: 6.0
[8]; Rate 0.2500 kg/ha
  Postemergence herbicidal rating CHEAL: 9.0
[9]; rate 0.0313 kg/ha
  Preemergence herbicidal rating AMBEL: 0.0
[9]; rate 0.0625 kg/ha
  Preemergence herbicidal rating AMBEL: 0.0
[9]; rate 0.1250 kg/ha
  Preemergence herbicidal rating AMBEL: 0.0
[9]; rate 0.2500 kg/ha
  Preemergence herbicidal rating AMBEL: 5.0
[10]; [15]
  Herbicidal rating SAGPY: 0.0
[10]; [16]
  Herbicidal rating SAGPY: 3.0
[10]; [17]
  Herbicidal rating SAGPY: 4.0
[10]; [18]
  Herbicidal rating SAGPY: 9.0
[11]; Rate 0.0156 kg/ha
  Postemergence herbicidal rating ZEAMX: 7.5
[11]; Rate 0.0313 kg/ha
  Postemergence herbicidal rating ZEAMX: 7.5
[11]; Rate 0.0625 kg/ha
  Postemergence herbicidal rating ZEAMX: 7.5
[11]; Rate 0.1250 kg/ha
  Postemergence herbicidal rating ZEAMX: 7.5
[11]; Rate 0.2500 kg/ha
  Postemergence herbicidal rating ZEAMX: 7.5
[12]; Rate 0.0156 kg/ha
  Postemergence herbicidal rating TRZAWR: 5.0
[12]; Rate 0.0313 kg/ha
  Postemergence herbicidal rating TRZAWR: 5.5
[12]; Rate 0.0625 kg/ha
  Postemergence herbicidal rating TRZAWR: 6.5
[12]; Rate 0.1250 kg/ha
  Postemergence herbicidal rating TRZAWR: 8.0
[12]; Rate 0.2500 kg/ha
  Postemergence herbicidal rating TRZAWR: 8.0
[13]; [15]
  Herbicidal rating ECHORC: 0.0
[13]; [16]
  Herbicidal rating ECHORC: 2.0
[13]; [17]
  Herbicidal rating ECHORC: 4.0
[13]; [18]
  Herbicidal rating ECHORC: 7.0
[14]; Rate 0.0156 kg/ha
  Postemergence herbicidal rating GLXMAW: 6.5
[14]; Rate 0.0313 kg/ha
  Postemergence herbicidal rating GLXMAW: 6.5
[14]; Rate 0.0625 kg/ha
  Postemergence herbicidal rating GLXMAW: 8.0
[14]; Rate 0.1250 kg/ha
  Postemergence herbicidal rating GLXMAW: 8.5
[14]; Rate 0.2500 kg/ha
  Postemergence herbicidal rating GLXMAW: 8.5

## CN1C(=O)C(CC(N)=O)SC1=Nc1cc(-n2c(=O)cc(C(F)(F)F)n(C)c2=O)c(F)cc1Cl (stereo not shown) [Compound 92, 2-{{2-Chloro-5-[3,6-dihydro-3-methyl-2,6-dioxo-4-(trifluoromethyl)-1(2H)-pyrimidinyl]-4-fluorophenyl}imino}-3-methyl-4-oxo-5-thiazolidineacetamide]
[1]; 0.0156 kg/ha
  SETVI rating: 0.0
[1]; 0.0313 kg/ha
  SETVI rating: 0.0
[1]; 0.0625 kg/ha
  SETVI rating: 0.0
[1]; 0.1250 kg/ha
  SETVI rating: 0.0
[1]; 0.2500 kg/ha
  SETVI rating: 9.0
[2]; rate 0.0158 kg/ha
  ORYSAT herbicidal rating: 1.5
[2]; rate 0.0315 kg/ha
  ORYSAT herbicidal rating: 2.0
[2]; rate 0.0630 kg/ha
  ORYSAT herbicidal rating: 3.5
[3]; rate 0.0158 kg/ha
  ABUTH herbicidal rating: 9.0
[3]; rate 0.0315 kg/ha
  ABUTH herbicidal rating: 9.0
[3]; rate 0.0630 kg/ha
  ABUTH herbicidal rating: 9.0
[4]; 0.0156 kg/ha
  GALAP rating: 0.0
[4]; 0.0313 kg/ha
  GALAP rating: 0.0
[4]; 0.0625 kg/ha
  GALAP rating: 0.0
[4]; 0.1250 kg/ha
  GALAP rating: 9.0
[4]; 0.2500 kg/ha
  GALAP rating: 9.0
[5]; 0.0313 kg/ha
  CYPIR herbicidal effect rating: 3.0
[5]; 0.0625 kg/ha
  CYPIR herbicidal effect rating: 3.0
[5]; 0.1250 kg/ha
  CYPIR herbicidal effect rating: 5.0
[5]; 0.2500 kg/ha
  CYPIR herbicidal effect rating: 7.0
[6]; [19]
  Herbicidal rating CYPSE: 9.0
[6]; [20]
  Herbicidal rating CYPSE: 9.0
[6]; [21]
  Herbicidal rating CYPSE: 9.0
[6]; [22]
  Herbicidal rating CYPSE: 9.0
[7]; rate 0.0158 kg/ha
  SETVI herbicidal rating: 0.0
[7]; rate 0.0315 kg/ha
  SETVI herbicidal rating: 9.0
[7]; rate 0.0630 kg/ha
  SETVI herbicidal rating: 9.0
[8]; rate 0.0158 kg/ha
  CHEAL herbicidal rating: 2.0
[8]; rate 0.0315 kg/ha
  CHEAL herbicidal rating: 9.0
[8]; rate 0.0630 kg/ha
  CHEAL herbicidal rating: 9.0
[9]; 0.0156 kg/ha
  AMBEL rating: 0.0
[9]; 0.0313 kg/ha
  AMBEL rating: 0.0
[9]; 0.0625 kg/ha
  AMBEL rating: 0.0
[9]; 0.1250 kg/ha
  AMBEL rating: 5.0
[9]; 0.2500 kg/ha
  AMBEL rating: 9.0
[10]; [19]
  Herbicidal rating SAGPY: 0.0
[10]; [20]
  Herbicidal rating SAGPY: 0.0
[10]; [21]
  Herbicidal rating SAGPY: 4.0
[10]; [22]
  Herbicidal rating SAGPY: 9.0
[11]; rate 0.0158 kg/ha
  ZEAMX herbicidal rating: 6.0
[11]; rate 0.0315 kg/ha
  ZEAMX herbicidal rating: 7.5
[11]; rate 0.0630 kg/ha
  ZEAMX herbicidal rating: 8.0
[12]; rate 0.0158 kg/ha
  TRZAWR herbicidal rating: 5.0
[12]; rate 0.0315 kg/ha
  TRZAWR herbicidal rating: 6.0
[12]; rate 0.0630 kg/ha
  TRZAWR herbicidal rating: 6.5
[13]; [19]
  Herbicidal rating ECHORC: 0.0
[13]; [20]
  Herbicidal rating ECHORC: 0.0
[13]; [21]
  Herbicidal rating ECHORC: 2.0
[13]; [22]
  Herbicidal rating ECHORC: 3.0
[14]; rate 0.0158 kg/ha
  GLXMAW herbicidal rating: 7.5
[14]; rate 0.0315 kg/ha
  GLXMAW herbicidal rating: 9.0
[14]; rate 0.0630 kg/ha
  GLXMAW herbicidal rating: 9.0
